According to patent US7026510B2, “Quaternary ammonium salts of omega-aminoalkylamides of r-2-aryl-propionic acids and pharmaceutical compositions containing them” (Dompé S.p.A., priority 2001, dated 2006):

System: C5a-induced chemotaxis of PMN
Experiment: Inhibition of C5a-induced chemotaxis of human PMNs (microchamber)
Assay type: cell-based
Settings: compound C = 10^−6 M, C5a 10^−9 M, 60 min at 37° C.
Method: The compounds of the invention of formula (I) were evaluated in vitro for their ability to inhibit chemotaxis of polymorphonucleate leukocytes (hereinafter referred to as PMNs) and monocytes induced by the fractions of the complement C5a and C5a-desArg. For this purpose, to isolate the PMNs from heparinized human blood, taken from healthy adult volunteers, mononucleates were removed by means of sedimentation on dextran (according to the procedure disclosed by W. J. Ming et al., J. Immunol., 138, 1469, 1987) and red blood cells by a hypotonic solution. The cell vitality was calculated by exclusion with Trypan blue, whilst the ratio of the circulating polymorphonucleates was estimated on the cytocentrifugate after staining with Diff Quick.
Human recombinant fractions C5a and C5a-desArg (Sigma) were used as stimulating agents in the chemotaxis experiments, giving practically identical results.
The lyophilized C5a was dissolved in a volume of HBSS containing 0.2% bovin serum albumin BSA so thus to obtain a stock solution having a concentration of 10^−5 M to be diluted in HBSS to a concentration of 10^−9 M, for the chemotaxis assays.
In the chemotaxis experiments, the PMNs were incubated with the compounds of the invention of formula (I) for 15′ at 37° C. in an atmosphere containing 5% CO2.
The chemotactic activity of the C5a was evaluated on human circulating polymorphonucleates (PMNs) resuspended in HBSS at a concentration of 1.5×10^6 PMNs per mL.
During the chemotaxis assay (according to W. Falket et al., J. Immunol. Methods, 33, 239, 1980) PVP-free filters with a porosity of 5 μm and microchambers suitable for replication were used.
The compounds of the invention in formula (I) were evaluated at a concentration ranging between 10^−6 and 10^−10 M; for this purpose they were added, at the same concentration, both to the lower pores and the upper pores of the microchamber. The wells in the lower part contain the solution of C5a or the simple carrier, those in the upper part contain the suspension of PMNs.
Inhibition of C5a-induced chemotactic activity by the individual compounds of the invention of formula (I) was evaluated by incubating the microchamber for the chemotaxis for 60 min at 37° C. in an atmosphere containing 5% CO2.
By way of example, the inhibition data of the chemotaxis of PMN (C=10^−6 M) of some representative compounds of the invention are reported in the following table: […]

Molecule	inhibition at 1 µM (Homo sapiens, 1 h) [%]	% INHIBITION (C = 10^−6 M) [%]
C[C@@H](C(=O)NCCC[N+](C)(C)C)c1ccccc1Nc1c(Cl)cccc1Cl [(R)-{3-{2-[2-(2,6-dichlorophenylamino)-phenyl]-propionylamino}-propyl)-trimethylammonium iodide]	62 ± 3	–
CC(C)Cc1ccc([C@@H](C)C(=O)NCCC[N+]2(C)CCCCC2)cc1.[I-] [R(−)-{3-[2-(4′-isobutylphenyl)-propionylamino]-propyl}-1-methyl-piperidinium iodide]	–	24 ± 4
CC(C)Cc1ccc([C@@H](C)C(=O)NCCC[N+](C)(C)Cc2ccccc2)cc1.[I-] [R(−)-{3-[2-(4′-isobutylphenyl)-propionylamino]-propyl}-(N-benzyl)-N,N-dimethylammonium iodide]	–	22 ± 4
CC(C)Cc1ccc([C@@H](C)C(=O)NCCC[N+](C)(C)CC2CCCCC2)cc1.CS(=O)(=O)[O-] [R(−)-{3-[2-(4′-isobutylphenyl)-propionylamino]-propyl}-N-cyclohexylmethyl-N,N-dimethyl-ammonium metaneosulfonate]	–	57 ± 4
CC(C)Cc1ccc([C@@H](C)C(=O)NCCC[N+](C)(C)C)cc1.[I-] [R(−)-{3-[2-(4′-isobutylphenyl)-propionylamino]-propyl}-trimetilammonium iodide]	–	53 ± 6
R(−)-2-[(4′-isobutylphenyl)-propionylamino]-1,1-dimethylpiperidinium iodide	–	18 ± 9
